Assay results reported in ChEMBL document CHEMBL1140672, “Design, synthesis, and evaluation of isoindolinone-hydroxamic acid derivatives as histone deacetylase (HDAC) inhibitors” (Bioorg Med Chem Lett, 2007).
Active and inactive are the calls of the source. The calls are words filed in the database; no cut-off is given here.

Columns and labels:
[1] = target: T1, Protein deacetylase HDAC6 (Homo sapiens, UniProt Q9UBN7); assay: Inhibition of human HDAC6
T1 sequence (Q9UBN7 whole entry): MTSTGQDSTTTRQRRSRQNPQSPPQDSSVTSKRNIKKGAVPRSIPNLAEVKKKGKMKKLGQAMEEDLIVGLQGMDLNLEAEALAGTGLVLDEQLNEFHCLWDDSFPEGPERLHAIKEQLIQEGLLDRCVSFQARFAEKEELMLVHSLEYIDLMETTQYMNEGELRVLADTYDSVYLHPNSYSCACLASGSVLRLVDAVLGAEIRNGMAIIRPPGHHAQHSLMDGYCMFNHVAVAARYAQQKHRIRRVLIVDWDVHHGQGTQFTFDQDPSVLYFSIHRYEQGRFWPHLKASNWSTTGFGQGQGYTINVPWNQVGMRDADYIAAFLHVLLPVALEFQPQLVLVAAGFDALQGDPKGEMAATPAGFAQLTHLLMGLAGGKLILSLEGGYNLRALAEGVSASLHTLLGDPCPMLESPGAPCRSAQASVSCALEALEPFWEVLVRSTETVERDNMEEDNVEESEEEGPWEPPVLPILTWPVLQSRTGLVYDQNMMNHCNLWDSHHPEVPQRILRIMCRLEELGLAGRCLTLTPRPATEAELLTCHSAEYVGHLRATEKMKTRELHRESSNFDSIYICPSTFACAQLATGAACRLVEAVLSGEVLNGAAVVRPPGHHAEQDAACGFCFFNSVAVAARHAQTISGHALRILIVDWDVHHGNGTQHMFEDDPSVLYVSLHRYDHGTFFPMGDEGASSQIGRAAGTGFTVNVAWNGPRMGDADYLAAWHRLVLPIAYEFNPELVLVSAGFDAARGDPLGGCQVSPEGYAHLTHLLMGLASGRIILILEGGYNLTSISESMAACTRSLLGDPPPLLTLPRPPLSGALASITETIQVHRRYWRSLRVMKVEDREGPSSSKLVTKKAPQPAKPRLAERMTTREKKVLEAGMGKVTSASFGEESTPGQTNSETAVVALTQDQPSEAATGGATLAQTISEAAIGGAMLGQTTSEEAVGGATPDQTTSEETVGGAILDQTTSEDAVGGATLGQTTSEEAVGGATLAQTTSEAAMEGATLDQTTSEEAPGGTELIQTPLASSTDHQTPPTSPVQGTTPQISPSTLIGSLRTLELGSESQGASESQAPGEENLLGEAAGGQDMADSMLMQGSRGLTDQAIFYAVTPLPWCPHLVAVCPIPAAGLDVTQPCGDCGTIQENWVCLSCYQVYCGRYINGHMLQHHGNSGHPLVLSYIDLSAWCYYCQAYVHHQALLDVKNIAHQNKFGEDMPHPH

Histone deacetylase 4 = Histone deacetylase 4 (Homo sapiens, UniProt P56524); assay: Inhibition of human HDAC4
Chain of Histone deacetylase 4 (P56524 whole entry): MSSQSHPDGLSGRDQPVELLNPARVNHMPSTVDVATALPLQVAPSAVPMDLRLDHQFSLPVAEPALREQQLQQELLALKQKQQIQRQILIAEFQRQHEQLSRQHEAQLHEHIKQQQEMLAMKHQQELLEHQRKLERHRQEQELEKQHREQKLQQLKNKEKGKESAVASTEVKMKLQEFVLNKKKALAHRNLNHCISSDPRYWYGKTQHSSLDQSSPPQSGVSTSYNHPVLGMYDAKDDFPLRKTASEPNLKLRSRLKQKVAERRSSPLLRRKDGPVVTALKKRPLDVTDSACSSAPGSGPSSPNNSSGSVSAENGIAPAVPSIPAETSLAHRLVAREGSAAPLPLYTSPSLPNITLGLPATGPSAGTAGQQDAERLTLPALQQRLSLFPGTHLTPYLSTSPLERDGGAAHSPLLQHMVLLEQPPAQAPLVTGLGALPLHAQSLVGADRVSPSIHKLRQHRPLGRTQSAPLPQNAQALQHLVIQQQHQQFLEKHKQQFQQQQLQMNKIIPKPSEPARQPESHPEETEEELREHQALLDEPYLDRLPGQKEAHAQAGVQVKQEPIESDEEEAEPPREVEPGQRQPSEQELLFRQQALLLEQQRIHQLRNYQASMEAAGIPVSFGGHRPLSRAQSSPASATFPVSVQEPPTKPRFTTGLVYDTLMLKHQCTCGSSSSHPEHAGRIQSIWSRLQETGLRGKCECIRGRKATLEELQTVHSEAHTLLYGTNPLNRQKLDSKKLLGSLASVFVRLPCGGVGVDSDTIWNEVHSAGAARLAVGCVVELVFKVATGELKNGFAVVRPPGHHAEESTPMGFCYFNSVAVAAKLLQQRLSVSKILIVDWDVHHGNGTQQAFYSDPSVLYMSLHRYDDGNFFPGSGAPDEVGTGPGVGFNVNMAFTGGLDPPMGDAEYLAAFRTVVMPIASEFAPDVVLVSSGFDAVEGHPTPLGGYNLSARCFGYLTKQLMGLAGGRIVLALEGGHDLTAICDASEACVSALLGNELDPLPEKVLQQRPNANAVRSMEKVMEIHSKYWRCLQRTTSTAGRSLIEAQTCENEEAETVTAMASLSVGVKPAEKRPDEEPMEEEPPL

Histone deacetylase 1 = Histone deacetylase 1 (Homo sapiens, UniProt Q13547); assay: Inhibition of human HDAC1
Chain of Histone deacetylase 1 (Q13547 whole entry): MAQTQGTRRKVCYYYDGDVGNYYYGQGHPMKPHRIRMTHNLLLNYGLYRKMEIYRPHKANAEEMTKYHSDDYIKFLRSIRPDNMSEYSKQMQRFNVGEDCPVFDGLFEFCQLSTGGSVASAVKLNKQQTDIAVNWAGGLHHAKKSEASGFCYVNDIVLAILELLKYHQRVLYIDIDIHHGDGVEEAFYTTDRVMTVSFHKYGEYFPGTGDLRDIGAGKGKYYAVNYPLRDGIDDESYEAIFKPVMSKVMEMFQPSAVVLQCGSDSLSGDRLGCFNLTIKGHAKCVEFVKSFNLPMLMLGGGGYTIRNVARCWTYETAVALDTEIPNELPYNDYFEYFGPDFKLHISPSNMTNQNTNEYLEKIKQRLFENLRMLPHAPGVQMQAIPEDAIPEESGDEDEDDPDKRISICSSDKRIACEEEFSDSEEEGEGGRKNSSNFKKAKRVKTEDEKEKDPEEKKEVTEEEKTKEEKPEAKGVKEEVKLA

PANC-1 [2] = assay: Increase in p21WAF1/CIP1 gene expression in PANC1 cells after 24 hrs relative to control; assay type: functional, cell-based; conditions: Homo sapiens
PANC-1 [3] = assay: Increase in p21WAF1/CIP1 gene expression in PANC1 cells at 0.1 uM after 48 hrs relative to control; assay type: functional, cell-based; conditions: Homo sapiens
PANC-1 [4] = assay: Increase in p27kip1 gene expression in PANC1 cells after 24 hrs relative to control; assay type: functional, cell-based; conditions: Homo sapiens
PANC-1 [5] = assay: Increase in p27kip1 gene expression in PANC1 cells after 48 hrs relative to control; assay type: functional, cell-based; conditions: Homo sapiens
PANC-1 [6] = assay: Antiproliferative activity against human PANC1 cells; assay type: functional, cell-based
PT-45 = assay: Antiproliferative activity against human drug-resistant PT45 cells; assay type: functional, cell-based
PANC-1 [7] = assay: Increase in p21WAF1/CIP1 gene expression in PANC1 cells 1 uM after 48 hrs relative to control; assay type: functional, cell-based; conditions: Homo sapiens

SMILES	IC50 [1]	IC50 (Histone deacetylase 4)	IC50 (Histone deacetylase 1)	Activity (PANC-1 [2])	Activity (PANC-1 [3])	Activity (PANC-1 [4])	Activity (PANC-1 [5])	IC50 (PANC-1 [6])	IC50 (PT-45)	Activity (PANC-1 [7])
O=C(/C=C/c1ccc2c(c1)C(=O)N(Cc1ccccc1)C2)NO	230 nM	220 nM	250 nM							
O=C(/C=C/c1ccc2c(c1)C(=O)N(Cc1ccc(-c3ccncc3)cc1)C2)NO	15000 nM	2100 nM	3300 nM							
O=C(CCCCCCC(=O)Nc1ccccc1)NO				Active	Active	inactive	inactive			
O=C(/C=C/c1ccc2c(c1)C(=O)N(Cc1ccc(-c3ccccc3)cc1)C2)NO	750 nM	98 nM	220 nM					150 nM	300 nM	
O=C(/C=C/c1ccc2c(c1)C(=O)N(Cc1ccc(-c3cccnc3)cc1)C2)NO	280 nM	56 nM	92 nM		Active	inactive	inactive	35 nM	200 nM	Active
CC(C)(C)c1ccc(CN2Cc3ccc(/C=C/C(=O)NO)cc3C2=O)cc1	990 nM	180 nM	230 nM							
